Measured values from paper PMC4742142, “Identification of novel, in vivo active Chk1 inhibitors utilizing structure guided drug design” (Oncotarget, 2015).
Values joined by “and” are separate entries in the source; they are usually repeats but may differ in a detail not shown here. Equal entries are not always repeated. “Also recorded” adds a separate entry of the source. Where two headings read alike, the source gives them in different places.

Legend:
SW620 = test: Single agent cytotoxicity assay (SRB, 72 hours); type: cell-based; conditions: Homo sapiens, SW-620, SW620, colon
Experimental: (§1) All cells were obtained from the American Type Culture Collection and maintained as low passage stocks. Cells were routinely cultured in DMEM or RPMI1640 containing 10% FCS and 1% penicillin / streptomycin (Invitrogen). The cytotoxicity of V158411 was determined following exposure of cells in 96 well plates using a 10-point titration for 72 hours. Cell proliferation was determined using sulphorhodamine B staining following protein precipitation with 10% TCA.

NCI-H520 = test: Single agent cytotoxicity assay (SRB, 72 hours); type: cell-based; conditions: Homo sapiens, NCI-H520, lung
Experimental: as §1

HCT116 = test: Single agent cytotoxicity assay (SRB, 72 hours); type: cell-based; conditions: Homo sapiens, HCT-116, HCT116, colon
Experimental: as §1

A549 = test: Single agent cytotoxicity assay (SRB, 72 hours); type: cell-based; conditions: Homo sapiens, A549, lung
Experimental: as §1

PC3 = test: Single agent cytotoxicity assay (SRB, 72 hours); type: cell-based; conditions: Homo sapiens, PC-3, PC3, prostate
Experimental: as §1

Colo205 = test: Single agent cytotoxicity assay (SRB, 72 hours); type: cell-based; conditions: Homo sapiens, COLO 205, Colo205, colon
Experimental: as §1

NCI-H460 = test: Single agent cytotoxicity assay (SRB, 72 hours); type: cell-based; conditions: Homo sapiens, NCI-H460, lung
Experimental: as §1

HT29 = test: Single agent cytotoxicity assay (SRB, 72 hours); type: cell-based; conditions: Homo sapiens, HT-29, HT29, colon
Experimental: as §1

Chk2 = Chk2 (Homo sapiens, UniProt O96017); test: Etoposide induced Chk2 autophosphorylation (pS516) in HT29 cells, immunoblotting; type: cell-based; set-up: endogenous in cells; host or cells: HT29; conditions: 1 hour compound then 25 μM etoposide 5 hours
Chk2, sequence (O96017 whole entry): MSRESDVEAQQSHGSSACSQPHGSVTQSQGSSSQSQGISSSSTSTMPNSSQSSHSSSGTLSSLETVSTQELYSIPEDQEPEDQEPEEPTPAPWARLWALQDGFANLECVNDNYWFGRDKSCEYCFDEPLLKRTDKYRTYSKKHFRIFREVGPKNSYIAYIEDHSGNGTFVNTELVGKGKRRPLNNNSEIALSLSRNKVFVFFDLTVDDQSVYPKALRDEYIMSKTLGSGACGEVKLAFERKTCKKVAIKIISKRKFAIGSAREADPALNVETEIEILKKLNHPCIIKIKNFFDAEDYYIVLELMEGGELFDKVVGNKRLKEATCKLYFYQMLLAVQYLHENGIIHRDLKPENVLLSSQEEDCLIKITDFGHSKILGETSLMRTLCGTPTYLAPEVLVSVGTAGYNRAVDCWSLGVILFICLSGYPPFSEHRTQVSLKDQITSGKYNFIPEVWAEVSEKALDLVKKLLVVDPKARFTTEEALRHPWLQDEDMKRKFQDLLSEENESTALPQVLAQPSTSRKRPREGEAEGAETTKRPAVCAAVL
Experimental: Figure 3 Effect of V158411 on etoposide, gemcitabine and camptothecin induced DNA damage checkpoint and cell cycle proteins A. HT29 cells were exposed to increasing concentrations of V158411 for 1 hour followed by 25 μM etoposide for a further 5 hours. Auto-phosphorylation of Chk1 and Chk2 was determined by immunoblotting. B. HT29 cells were treated with gemcitabine (25 nM) or camptothecin (50 nM) for 16 hours followed by increasing doses of V158411 for a further 24 hours. C. HT29 cells were treated with 500 nM V158411 for 1 hour, media removed and replaced with drug free. Cells were harvested at the indicated time points post the removal of V158411. D. HT29 cells were treated with 0 or 100 nM camptothecin for 16 hours followed by V158411 for 2 - 24 hours. After the indicated time, media was removed and replaced with drug free media. All cells were harvested 24 hours after the initial addition of V158411. Protein expression was characterized by immunoblotting as described in materials and methods.
Anti-pHistone H3 (S10) was obtained from Millipore; pCdc2 (Y15), pCdc25C (S216), Chk1, pChk1 (S317), pChk2 (S516), Cyclin B1, pH2AX (S139), GAPDH and Actin from Cell Signaling Technologies and pChk1 (S296) from Abcam. […] Protein concentration was determined using BCA kit (Pierce). […]

[1] = Tolerability (MTD) in female nu/nu mice; type: in vivo
Excerpt: Animals were weighed daily for the first five days then twice weekly thereafter for the duration of the study. The mice were observed frequently for overt signs of any adverse, treatment-related side effects, and clinical signs of toxicity recorded. Toxicity greater than a group mean body-weight loss of more than 20% or 1 in 10 treatment-related deaths was considered to be the maximum tolerated dose.

[2] = Plasma pharmacokinetics, IV bolus; type: in vivo; conditions: 10 mg/kg IV; for Vd: read-out: Vss
Experimental: Dosing of animals and collection of samples was conducted by Quotient Bioresearch (Rushden) Ltd, UK. V158411 was administered by intravenous (IV) bolus injection to female Balb/C mice, male Sprague-Dawley rats or male beagle dogs. Plasma samples were prepared by protein precipitation with acetonitrile containing internal standard (IS; dextromethorphan, 0.5 μg/mL); the analysis plate was centrifuged at 3,000 rpm for 10 minutes at 4°C. […] The ratios of analyte against IS peak areas were calculated, and concentrations derived from calibration lines generated by Quanlynx (Waters Ltd.).
Pharmacokinetic parameters were calculated using the software package WinNonLin (Pharsight Corp.). Data was analyzed using noncompartmental analysis and fitted using plasma concentration versus time curves.

Colo205 xenografts = test: Colo205 xenograft antitumor efficacy; type: in vivo
Excerpt: Xenograft studies were undertaken by Charles River Laboratories Discovery Services, North Carolina. On the day of tumor cell implant, Colo205 cells were harvested and resuspended in 50% Matrigel matrix (BD Biosciences) in PBS at a concentration of 5 × 10^6 cells/mL. Each test mouse received 1 × 10^6 Colo205 cells implanted subcutaneously (SC) in the flank of female athymic nude mice (HRLN or NCr nu/nu), and tumor growth was monitored as the average size approached 100-150 mm^3. The SW620 tumor line was maintained by serial SC transplantation in female athymic nude mice (HRLN nu/nu). Tumor fragments, approximately 1 mm^3 each, were implanted SC into the right flank of each animal and allowed to grow towards a target size of 100-150 mm^3. On day 1 of the study, tumors were randomized into treatment groups before compound administration.
V158411 was formulated in D5W and administered via IV injection into the tail vein. Cyclic treatment regimens were followed and treatment ranged from 2-3 cycles.
Tumor size was measured with electronic calipers and tumor volume calculated according to the formula ((width × width) × length) /2.
The study endpoint was defined as a tumor volume of 750 mm^3 for Colo205 or 1500 mm^3 for SW620, or day 60, whichever came first. Each animal was euthanized when its' tumor reached this endpoint. The time to endpoint (TTE) for each mouse was calculated from the equation TTE = (log10(endpoint volume)-b)/m where b is the intercept and m the slope of the line obtained by linear regression of a log-transformed tumor growth data set.

[3] = Colo205, 75 mg/kg irinotecan IP followed by 30 mg/kg V158411 IV
[4] = Colo205, 75 mg/kg irinotecan IP followed by 60 mg/kg V158411 IV

CN(C)CC(C)(C)COc1ccc2[nH]c(-c3cc(NC(=O)c4cnn(Cc5ccccc5)c4)c[nH]c3=O)cc2c1 [V158411]
GI50 (SW620): 500 ± 33 nM | GI50 (NCI-H520): 550 ± 140 nM | GI50 (HCT116): 4000 ± 780 nM | GI50 (A549): 1400 ± 350 nM | GI50 (PC3): 9500 ± 1000 nM | GI50 (Colo205): 1600 ± 420 nM | GI50 (NCI-H460): 2700 ± 930 nM | GI50 (HT29): 650 ± 250 nM | IC50 (Chk2): 904 nM | toxicity / maximum tolerated dose ([1]; IV bolus once or twice weekly, doses up to 100 mg/kg): minimal toxicity at doses up to 100 mg/kg; also recorded: the maximum tolerated dose of V158411 has yet to be found | effect on irinotecan toxicity ([1]; MTD irinotecan (100 mg/kg IP) plus V158411 up to 100 mg/kg IV 2 hours later, q7d 3 weeks): did not result in increased irinotecan toxicity; also recorded: did not affect the toxicity of irinotecan | acute, dose-related effects ([1]; single agent IV, self-limiting, minimized by slow infusion): flushing, tachycardia, exophthalmos | effect on body weight ([1]; single agent, 60 to 100 mg/kg IV q7d for 21 days, female nude mice): no effect on body weight loss | AUC(0-t) ([2]; female, Balb/C, mouse): 7100 ng·h/mL | clearance ([2]; female, Balb/C, mouse): 20 mL/min/kg | half-life ([2]; female, Balb/C, mouse): 2.9 h | Vd ([2]; female, Balb/C, mouse): 3.3 L/kg | AUC(0-t) ([2]; male, Sprague-Dawley, rat): 6910 ng·h/mL | clearance ([2]; male, Sprague-Dawley, rat): 23.2 mL/min/kg | half-life ([2]; male, Sprague-Dawley, rat): 3.3 h | Vd ([2]; male, Sprague-Dawley, rat): 2.4 L/kg | AUC(0-t) ([2]; male, beagle, dog): 16000 ng·h/mL | clearance ([2]; male, beagle, dog): 10.6 mL/min/kg | half-life ([2]; male, beagle, dog): 3.2 h | Vd ([2]; male, beagle, dog): 1.2 L/kg | Median TTE (Colo205 xenografts; Colo205, 60 mg/kg IV V158411 monotherapy, untreated 19.8 days): 22.3 days | single agent anti-tumor activity (Colo205 xenografts; Colo205, 60 mg/kg V158411 monotherapy): inactive; also recorded: no single agent activity | %TGD (Colo205 xenografts; [3]): 129% | T-C (Colo205 xenografts; [3]): 25.6 | Median TTE (Colo205 xenografts; Colo205, 75 mg/kg irinotecan IP followed by 30 mg/kg V158411 IV 2 hours later, q7d 3 cycles): 45.4 days | %TGD (Colo205 xenografts; [4]): 203% | T-C (Colo205 xenografts; [4]): 40.2 | Median TTE (Colo205 xenografts; Colo205, 75 mg/kg irinotecan IP followed by 60 mg/kg V158411 IV 2 hours later, q7d 3 cycles, study end day 60): 60.0 days and 60 days | mean body weight nadir (Colo205 xenografts; Colo205, irinotecan plus V158411 combination therapy, day 4): −2.7%
